Data reported in US6451339B2, “Compositions and methods for improved delivery of hydrophobic agents” (Lipocine, Inc., priority 1999, dated 2002).

Tests used:
[1] = value reported by the manufacturer of the commercial product, a rough average, or inventors' judgment; cited from earlier work
[2] = Surfactant combinations giving clear aqueous dispersions (maximum hydrophobic surfactant, visual optical clarity); conditions: for approximate maximum grams of hydrophobic surfactant per 100 g of hydrophilic surfactant giving acceptable optical clarity: 10× aqueous dispersion, no solubilizer
[3] = hydrophilic surfactant Cremophor RH40 + 20% Ethanol
[4] = hydrophilic surfactant Cremophor RH40 + 20% Glycofurol
[5] = hydrophilic surfactant Cremophor RH40 + 20% Triacetin
[6] = hydrophilic surfactant Cremophor RH40, solubilizer (None), reproduced from Table 19
[7] = hydrophilic surfactant PEG-8 Capric/Caprylic (Labrasol)
[8] = hydrophilic surfactant PEG-25 Glyceryl trioleate (Tagat TO)
[9] = hydrophilic surfactant PEG-35 Castor Oil (Incrocas 35)
[10] = hydrophilic surfactant PEG-40H Castor Oil (Cremophor RH-40)
[11] = hydrophilic surfactant PEG-60 Corn Oil (Crovol M-70)
[12] = hydrophilic surfactant Polysorbate 80 (Tween 80)
[13] = hydrophilic surfactant Polysorbate-20 (Tween 20)

## PEG-30 cholestanol
[1]
  HLB: >10

## CCCCCCCC/C=C\CCCCCCCC(=O)OCC [Ethyl oleate]
[1]
  HLB: <10
[2]; Cremophor RH 40 hydrophilic surfactant, 20% solubilizer
  effect of added solubilizer on the relative amount of hydrophobic surfactant that can be used: negligible
[2]; [3]
  approximate maximum grams of hydrophobic surfactant per 100 g of hydrophilic surfactant giving a clear aqueous dispersion: 60 g per 100 g of hydrophilic sur
[2]; [4]
  approximate maximum grams of hydrophobic surfactant per 100 g of hydrophilic surfactant giving a clear aqueous dispersion: 60 g per 100 g of hydrophilic sur
[2]; [5]
  approximate maximum grams of hydrophobic surfactant per 100 g of hydrophilic surfactant giving a clear aqueous dispersion: 60 g per 100 g of hydrophilic sur
[2]; [6]
  approximate maximum grams of hydrophobic surfactant per 100 g of hydrophilic surfactant giving a clear aqueous dispersion: 60 g per 100 g of hydrophilic sur
[2]; [7]
  approximate maximum grams of hydrophobic surfactant per 100 g of hydrophilic surfactant giving acceptable optical clarity: 10 g per 100 g of hydrophilic sur
[2]; [8]
  approximate maximum grams of hydrophobic surfactant per 100 g of hydrophilic surfactant giving acceptable optical clarity: 10 g per 100 g of hydrophilic sur
[2]; [9]
  approximate maximum grams of hydrophobic surfactant per 100 g of hydrophilic surfactant giving acceptable optical clarity: 40 g per 100 g of hydrophilic sur
[2]; [10]
  approximate maximum grams of hydrophobic surfactant per 100 g of hydrophilic surfactant giving acceptable optical clarity: 60 g per 100 g of hydrophilic sur
[2]; [11]
  approximate maximum grams of hydrophobic surfactant per 100 g of hydrophilic surfactant giving acceptable optical clarity: 60 g per 100 g of hydrophilic sur
[2]; [12]
  approximate maximum grams of hydrophobic surfactant per 100 g of hydrophilic surfactant giving acceptable optical clarity: 10 g per 100 g of hydrophilic sur
[2]; [13]
  approximate maximum grams of hydrophobic surfactant per 100 g of hydrophilic surfactant giving acceptable optical clarity: 10 g per 100 g of hydrophilic sur

## PEG-25 phyto sterol
[1]
  HLB: >10

## CCCCCCCCCC(=O)OCC(C)OC(=O)CCCCCCCCC (centres unmarked) [Propylene glycol dicaprate]
[1]
  HLB: >6

## CC(C)=CCC[C@@H](C)[C@H]1CC[C@@]2(C)C3=C(CC[C@]12C)[C@@]1(C)CC[C@H](O)C(C)(C)[C@@H]1CC3 [Ianosterol]
[1]
  HLB: <10

## CCCCCCCCCCCCOS(=O)(=O)[O-].[Na+] [Sodium lauryl sulfate, Sodium lauryl sulfate (dodecyl)]
[1]
  HLB: 40

## Polyglyceryl polyricinoleate
[1]
  HLB: 3-20

## mono- and diacetylated monoglycerides [Mono- and monoglycerides]
[1]
  HLB: 3.8-4
[2]; [3]
  approximate maximum grams of hydrophobic surfactant per 100 g of hydrophilic surfactant giving a clear aqueous dispersion: 80 g per 100 g of hydrophilic sur
[2]; [4]
  approximate maximum grams of hydrophobic surfactant per 100 g of hydrophilic surfactant giving a clear aqueous dispersion: 80 g per 100 g of hydrophilic sur
[2]; hydrophilic surfactant Cremophor RH40 + 20% PEG-400
  approximate maximum grams of hydrophobic surfactant per 100 g of hydrophilic surfactant giving a clear aqueous dispersion: 80 g per 100 g of hydrophilic sur
[2]; [5]
  approximate maximum grams of hydrophobic surfactant per 100 g of hydrophilic surfactant giving a clear aqueous dispersion: 80 g per 100 g of hydrophilic sur
[2]; [6]
  approximate maximum grams of hydrophobic surfactant per 100 g of hydrophilic surfactant giving a clear aqueous dispersion: 80 g per 100 g of hydrophilic sur
[2]; [7]
  approximate maximum grams of hydrophobic surfactant per 100 g of hydrophilic surfactant giving acceptable optical clarity: 10 g per 100 g of hydrophilic sur
[2]; [8]
  approximate maximum grams of hydrophobic surfactant per 100 g of hydrophilic surfactant giving acceptable optical clarity: 10 g per 100 g of hydrophilic sur
[2]; [9]
  approximate maximum grams of hydrophobic surfactant per 100 g of hydrophilic surfactant giving acceptable optical clarity: 80 g per 100 g of hydrophilic sur
[2]; [10]
  approximate maximum grams of hydrophobic surfactant per 100 g of hydrophilic surfactant giving acceptable optical clarity: 80 g per 100 g of hydrophilic sur
[2]; [11]
  approximate maximum grams of hydrophobic surfactant per 100 g of hydrophilic surfactant giving acceptable optical clarity: 10 g per 100 g of hydrophilic sur
[2]; [12]
  approximate maximum grams of hydrophobic surfactant per 100 g of hydrophilic surfactant giving acceptable optical clarity: 15 g per 100 g of hydrophilic sur
[2]; [13]
  approximate maximum grams of hydrophobic surfactant per 100 g of hydrophilic surfactant giving acceptable optical clarity: 20 g per 100 g of hydrophilic sur

## CCCCCCCCCCCCCCCCCC(=O)OCC(CO)(CO)COC(=O)CCCCCCCCCCCCCCCCC [Pentaerythrityl distearate]
[1]
  HLB: >10

## CCCCCCCCCCCCCC(=O)OC(C)C [Isopropyl myristate]
[1]
  HLB: <10

## CC[C@H](CC[C@@H](C)[C@H]1CC[C@H]2[C@@H]3CC=C4C[C@@H](O)CC[C@]4(C)[C@H]3CC[C@]12C)C(C)C [sitosterol]
[1]
  HLB: <10

## CCCCCCCC/C=C\CCCCCCCC(=O)[O-].[Na+] [Sodium oleate]
[1]
  HLB: 18

## CCCCC/C=C\C/C=C\CCCCCCCC(=O)OCC [Ethyl linoleate]
[1]
  HLB: <10

## CCCCC/C=C\C/C=C\CCCCCCCC(=O)OC(C)C [Isopropyl linoleate]
[1]
  HLB: <10

## PEG-20 soya sterol
[1]
  HLB: <10

## CCCCCCCC(=O)OCC(C)OC(=O)CCCCCCC (centres unmarked) [Propylene glycol dicaprylate]
[1]
  HLB: >6

## Phytosterol
[1]
  HLB: <10
